The source of these data is the Bradley open melting point set (2014).

Several values for one entry are separate records, joined by “and”; a condition that tells them apart may be missing. Identical values can stand only once.

Regarding `ClCC1CO1` (stereo not drawn) [epichlorohydrin], the melting point is -57 °C.

For `COC(=O)c1cccc(OC(C)=O)c1` [methyl_3-acetoxybenzoate], the melting point is 29 °C.

Molecule `CCc1cnc(C(=O)O)c(C(=O)O)c1` [5-ethylpyridine-2,3-dicarboxylic acid] came in with a melting point of 153 °C.

The molecule `CC(C)c1ccccc1` [Isopropylbenzene] came in with a melting point of -96 °C.

For the molecule `BrC(Br)Br` [bromoform], the melting point was 9 °C.

Consider `C#CCCCCCCCCCCCCCCCCC` [1-nonadecyne], for which the melting point was 33 °C.

In turn, `COc1ccc(/C=C/C(=O)c2ccccc2)cc1OC` [3,4-dimethoxychalcone] displayed a melting point of 89 °C.

In the case of `CC(=O)c1ccc2c(c1)CCO2` [5-acetyl-2,3-dihydrobenzo[b]furan], the melting point came out at 58 °C.

In turn, `COC(=O)C1(C)C(C)=Nc2ccccc21` (stereo not drawn) [methyl 2,3-dimethyl-3H-indole-3-carboxylate] registered a melting point of 81 °C.

The molecule `O=Cc1ccccc1` [Benzaldehyde] registered a melting point of -56 °C.

As to `COC(=O)CCC(C)C1CCC2C3C=CC4CC(OC(C)=O)CCC4(C)C3CC(OC(C)=O)C12C` (stereo not drawn) [methyl 3,12-bis(acetyloxy)chol-6-en-24-oate], the melting point was 84 °C.

`Cc1cc(O)c(C(C)C)cc1Cl` [4-chloro-2-isopropyl-5-methylphenol] gave a melting point of 60 °C.

Molecule `CC(C)(C)C1=CC(=O)C(=O)C(C(C)(C)C)=C1` [3,5-Di-tert-butyl-1,2-benzoquinone] had a melting point of 114 °C.

In turn, `N#CCc1cccc2ccccc12` [1-naphthylacetonitrile] showed a melting point of 34 °C.

In turn, `CC(=O)c1cc(F)cc(F)c1O` [3',5'-difluoro-2'-hydroxyacetophenone] returned a melting point of 107 °C.

For `Cn1c(=O)c2c(ncn2C)n(C)c1=O` [1,3,7-Trimethyl-3,7-dihydro-1H-purine-2,6-dione], the melting point is 237 °C.

`CCCCC1(CC)C(=O)NC(=O)NC1=O` [5-butyl-5-ethylbarbituric acid] had a melting point of 128 °C.

On to `SCc1ccccc1` [benzyl mercaptan], for which the melting point was -29 °C and -29.2 °C.

On to `O=[N+]([O-])c1ccc(O)c(Cl)c1` [2-chloro-4-nitrophenol], for which the melting point stood at 110 °C.

The molecule `Cc1cc(C)c(B(O)O)c(C)c1` [2,4,6-trimethylbenzeneboronic acid] had a melting point of 124 °C.

Turning to `O=C(O)c1ccccc1O` [Salicyclic acid], the melting point came to 158 °C.

`O=C(O)CCC(=O)c1ccc(-c2ccccc2)cc1` [fenbufen] returned a melting point of 186 °C.

Molecule `CCCCCCCCCCOc1cc(N(NC(=O)OC(C)(C)C)C(=O)OC(C)(C)C)cc(OCCCCCCCCCC)c1OCCCCCCCCCC` gave a melting point of 56 °C.

Molecule `O=C(Oc1ccccc1)c1ccccc1` [phenyl benzoate] yielded a melting point of 69 °C.

In turn, `CCCCCCCCC(=O)O` [nonanoic_acid] showed a melting point of 12 °C.

In turn, `ClC(Cl)c1ccccc1` [a,a-dichlorotoluene] returned a melting point of -16 °C.

Consider `CC12CCC(CC1=O)C2(C)C` (stereo not drawn) [camphor], for which the melting point came to 174 °C.

In turn, `Oc1ccc(Nc2ccccc2)cc1` [4-hydroxydiphenylamine] came in with a melting point of 69 °C.

The molecule `CCC(C)CC` [3-methylpentane] returned a melting point of -118 °C.

Take `CO[C@@H]1[C@@H](O[C@@H]2O[C@H](C)[C@@H](O[C@H]3C[C@@](C)(O)[C@@H](OC(=O)CC(C)C)[C@H](C)O3)[C@H](N(C)C)[C@H]2O)[C@@H](CC=O)C[C@@H](C)[C@@H](O)C=CC=CC[C@@H](C)OC(=O)C[C@H]1OC(C)=O` [Josamycin]: the melting point stood at 132 °C.

For `Nc1cc(Br)ccc1C(O)c1ccccc1` (stereo not drawn) [(2-amino-4-bromophenyl)(phenyl)methanol], the melting point turned out to be 113 °C.

As for `OB(O)c1cc(F)c(F)c(F)c1` [3,4,5-trifluorobenzeneboronic acid], the melting point worked out at 277 °C.

Regarding `CC(Br)C(C)(Br)Br` (stereo not drawn) [2,3,3-tribromobutane], the melting point came out at 2 °C.

Molecule `CCOC(C)(C)C` [2-Ethoxy-2-methylpropane] came in with a melting point of -94 °C.

`CCN(CC)CCNC(=O)c1cc(Cl)c(N)cc1OC` [Metoclopramide] registered a melting point of 147 °C.

In the case of `NC1=NN(c2ccccc2)CC1` [3-amino-4,5-dihydro-1-phenyl-1h-pyrazole], the melting point was 169 °C.

As to `CCCOC(C)=O` [propyl_acetate], the melting point is -95 °C.

`CCCCC(=O)CC` [3-heptanone] displayed a melting point of -37 °C.

In turn, `CCCCCCCCCCCCCCCCCCC` [N-nonadecane] yielded a melting point of 33 °C.

The molecule `Nc1cccc(I)c1` [m-iodoaniline] showed a melting point of 25 °C.

`O=P1(N(CCCl)CCCl)NCCCO1` (stereo not drawn) [N,N-Bis(2-chloroethyl)-1,3,2-oxazaphosphinan-2-amine 2-oxide]: the melting point worked out at 43 °C.

In turn, `C=C(Br)CC1(C(C)CC)C(=O)NC(=O)NC1=O` (stereo not drawn) [butallylonal] came in with a melting point of 132 °C.

In turn, `O=C(O)CSc1cccc2cccc(Cl)c12` [2-(8-chloro-1-naphthylthio)acetic acid] registered a melting point of 156 °C.

Consider `CCC1(c2ccccc2)C(O)=NC(=O)N=C1O` [phenobarbital], for which the melting point was 176 °C.

On to `N#CCc1ccccc1[N+](=O)[O-]` [o-nitrophenylacetonitrile], for which the melting point is 84 °C.

As to `COS(=O)(=O)c1ccc(C)cc1` [methyl p-toluenesulfonate], the melting point is 26 °C.

Take `Cc1cc(C)cc(C=O)c1` [3,5-dimethylbenzaldehyde]: the melting point is 9 °C.

In turn, `CC(=O)Nc1ccc(Br)cc1C` [4'-bromo-2'-methylacetanilide] showed a melting point of 156 °C.

Molecule `CC(C)C(C)C` [2,3-dimethylbutane] had a melting point of -129 °C.

In the case of `CCCC(C)(C)O` [2-methyl-2-pentanol], the melting point is -102 °C.

`ClC(Cl)=C(Cl)c1c(Cl)c(Cl)c(Cl)c(Cl)c1Cl` [Octachlorostyrene] displayed a melting point of 95 °C.

The molecule `Nc1ncnc2c1ncn2Cc1c(F)cccc1Cl` [arprinocid] yielded a melting point of 245 °C.

Regarding `CC1=CC(=O)CC(C)(C)C1` [isophorone], the melting point was -8 °C.

Molecule `O=S(=O)(NS(=O)(=O)C(F)(F)F)C(F)(F)F` came in with a melting point of 51.5 °C.

In the case of `O=Cc1cc(Cl)ccc1O` [5-chlorosalicylaldehyde], the melting point was determined as 101 °C.

Molecule `O=[N+]([O-])c1c(O)cccc1O` [2-nitroresorcinol] came in with a melting point of 83 °C.

Molecule `Cc1ccccc1N1C(=O)c2cc(S(N)(=O)=O)c(Cl)cc2NC1C` (stereo not drawn) [metolazone] had a melting point of 252 °C.

Turning to `C#CCCCCCCCCC` [1-undecyne], the melting point was -25 °C.

Molecule `CC=C(C)C` [2-methyl-2-butene] had a melting point of -134 °C.

In turn, `Oc1ccc(Cl)cc1Cc1cc(Cl)ccc1O` [2,2'-Methylenebis(4-chlorophenol)] came in with a melting point of 170 °C.

As for `NC(CC(=O)O)C(=O)O` (stereo not drawn) [aspartic acid], the melting point was 275 °C.

Consider `CCOC(=O)[C@@H]1CC[C@H](C(C)=O)[C@@H]1NC(=O)OC(C)(C)C`, for which the melting point was found to be 110 °C.

Molecule `Cc1ccccc1[N+](=O)[O-]` [1-Methyl-2-nitrobenzene] yielded a melting point of -10 °C.

As to `O=[PH](c1ccccc1)c1ccccc1` [diphenylphosphine oxide], the melting point was determined as 54 °C.

The molecule `C[C@@H](CN1CC(=O)NC(=O)C1)N1CC(=O)NC(=O)C1` [Dexrazoxane] gave a melting point of 194 °C.

On to `O(c1ccccc1OC\C=C)CC(O)CNC(C)C` (stereo not drawn) [oxprenolol], for which the melting point is 112 °C.

Turning to `O=C(O)C(S)C(S)C(=O)O` (stereo not drawn) [2,3-Disulfanylsuccinic acid], the melting point was determined as 197 °C.

`COc1cccc(C=O)c1OC` [2,3-dimethoxybenzaldehyde] registered a melting point of 52 °C.

Turning to `C=C(C)c1ccccc1` [2-phenyl-1-propene], the melting point was -23 °C.

Molecule `O=CC1CCCCC1` [cyclohexanecarboxaldehyde] came in with a melting point of 35 °C.

Molecule `C=CCCCCCCCCCCCCCCCC` [1-octadecene] came in with a melting point of 18 °C.

Regarding `O=Cc1ccc(O)c([N+](=O)[O-])c1` [4-hydroxy-3-nitrobenzaldehyde], the melting point is 142 °C.

Consider `O=C(O)c1cccc2c1nnn2Cc1ccccc1` [1-Benzyl-1H-benzotriazole-4-carboxylic acid], for which the melting point was 221 °C.

Take `O=C(O)C(F)(F)C(F)(F)C(F)(F)C(F)(F)C(F)(F)C(F)(F)C(F)(F)F` [Pentadecafluorooctanoic acid]: the melting point was 55.5 °C.

`CCCCCCCCCCCCSc1cc(N(NC(=O)OC(C)(C)C)C(=O)OC(C)(C)C)cc(SCCCCCCCCCCCC)c1SCCCCCCCCCCCC` gave a melting point of 50 °C.

In turn, `CC1(C)[C@@H]2CC[C@@]1(C)C(=O)C2` [(1R)-camphor] yielded a melting point of 178 °C.

In turn, `CC(C)(C)c1ccc(O)c(O)c1` [4-tert-butylcatechol] gave a melting point of 55 °C.

Molecule `CC(C)S` [2-propanethiol] registered a melting point of -131 °C.

The molecule `COC(=O)c1ccc(B(O)O)cc1` [4-(methoxycarbonyl)benzeneboronic acid] had a melting point of 223 °C.

As to `O=C1CCC(N2C(=O)c3ccccc3C2=O)C(=O)N1` (stereo not drawn) [Thalidomide], the melting point was determined as 270 °C.

In the case of `CC(C)(O)c1ccccc1` [2-phenyl-2-propanol], the melting point turned out to be 34 °C.

Take `S=C=Nc1ccc(I)cc1` [4-iodophenyl isothiocyanate]: the melting point stood at 76 °C.

On to `COC(=O)C1=C(C)NC(C)=C(C(=O)OC)C1c1ccccc1[N+](=O)[O-]` [Nifedipine], for which the melting point was 173 °C.

As for `CCCCCCCCCCCCCCCCCC(=O)OCC` [ethyl stearate], the melting point came out at 35 °C.

Take `CCCCC(CC)COC(=O)c1ccccc1C(=O)OCC(CC)CCCC` (stereo not drawn) [bis-2-ethylhexyl_phthalate]: the melting point is -50 °C.

With `O=C(O)Cc1ccccc1` [phenylacetic acid], the melting point was 77.5 °C and 76.7 °C and 77 °C.

Consider `COC(=O)CC(C)=O` [methyl_acetoacetate], for which the melting point was -80 °C.

`NC(=O)/C(=N\Nc1ccc(F)cc1)c1nc2ccccc2s1`: the melting point came out at 159 °C.
